Assay results: US12729211B2, “Gold(III) compounds and cancer cell-selective modulation of mitochondrial respiration and metabolism” (University of Kentucky Research Foundation, priority 2020, dated 2026)

Key:
MDA-MB-468 [1] = assay: Mitochondrial ROS (mtROS) by MitoSOX FACS; type: cell-based; settings: MitoTEMPO 1 μM 2 hours, then 2a 10 μM 2 hours
Text: Second, to solidify the specificity of ROS, the use of MitoSOX was employed, which is a mitochondrial targeting dye that specifically reacts with superoxide.
First, the effect of pre-treatment on mtROS production was examined using flow cytometry. Since MitoTEMPO is a specific scavenger for superoxide, the potential to alleviate mitochondrial oxidative damage was investigated by scavenging mtROS once produced. […] In this experiment, Rotenone, a mitochondrial complex I inhibitor, was used as a positive control.

MDA-MB-468 [2] = assay: MMP by JC-1 FACS, MDA-MB-468; type: cell-based
Text: The MMP depolarizing effect on the panel of TBNCs and healthy models was examined with the use of flow assisted cell sorting (FACS) (FIG. 19A-C). JC-1 was used, a cationic, fluorometric dye that is dependent on the negative charge of the MMP. It is represented as J-aggregates (red fluorescence) when it accumulates into the mitochondria and J-monomers (green fluorescence) when it is located outside the mitochondrial membrane due to loss of the electrochemical gradient.
Next, the effect of MMP was examined when pretreated with MitoTEMPO (1 μM, 2 hours) (FIG. 34).

Row | Compound | decrease in mtROS versus the non-pretreated group (MDA-MB-468 [1]) | loss of MMP, MitoTEMPO pretreatment (MDA-MB-468 [2]) | loss of MMP, no pretreatment (MDA-MB-468 [2])
1 | CC1(C)CC(NC(=O)C[P+](c2ccccc2)(c2ccccc2)c2ccccc2)CC(C)(C)N1[O] [MitoTEMPO] | 1.8 fold | – | –
2 | Carbonyl cyanide m-chlorophenyl hydrazine [CCCP] | – | 84% | 95%
